# Several values for one entry are separate records, joined by “and”; a condition that tells them apart may be missing. Identical values can stand only once.
# Test system: 876862-298-R-J1-PDC complex spheroids, viability % test/control
# Assay: Anticancer human tumor 876862-298-R-J1-PDC patient-derived endometrial carcinoma cell line growth inhibition [CLK]
# Details: for viability, T/C: stronger effect = lower value
# From the text: A high-throughput screen of multi-cell type tumor spheroids was designed to identify active combinations of […] and targeted small molecules. Complex spheroids include a stromal component modeled by human endothelial cells (HUVEC) and fibroblasts modeled by human mesenchymal stem cells (MSCs). The concentration ranges selected for each drug and investigational agent were based upon clinically achievable concentrations if the clinical Cmax of the agent was known.
# Compounds. The drugs and investigational agents: cirtuvivint (SM08502; NSC835563), CC-671 (NSC850746), vemurafenib (NSC761431), tapotoclax (NSC804041), sotorasib (NSC818433), adagrasib (NSC831453), MRTX-1133 (NSC836407), BAY2416964 (NSC825713), copanlisib (NSC816437), inavolisib (NSC800729), abemaciclib (NSC768073), osimertinib (NSC779217), entinostat (NSC756642), eltanexor (KPT-8602, NSC794443), venetoclax (NSC766270), ceralasertib (NSC777638), bortezomib (NSC756655), olaparib (NSC753686), talazoparib (NSC767125), alisertib (NSC759677), peposertib (NSC802822), gemcitabine (NSC613327), 5-fluorouracil (NSC19893), SN-38 (NSC673596), oxaliplatin (NSC266046), paclitaxel (NSC125973), and doxorubicin (NSC123127), were obtained from the National Cancer Institute (NCI) Developmental Therapeutics Program Chemical Repository. The FDA-approved anticancer drug set is available from the Developmental Therapeutics Program at https://dtp.cancer.gov/organization/dscb/obtaining/available plates.htm. […] The stock solutions were prepared in dimethyl sulfoxide (DMSO, Sigma-Aldrich, St. Louis, MO, cat. D2650), except for the platinum complexes which were prepared in saline (Quality Biological, Gaithersburg, MD, cat. 114-055-101), at 800-fold the tested concentration and stored at -70 degrees C prior to their use. All drugs and investigational agents were tested over a range starting from a high concentration at or near the clinical Cmax and decreasing in half-log increments. If the clinical Cmax for an agent had not been determined, the highest concentration tested was 10 microM.
# Cell Culture. All cells were maintained in an incubator at 37 degrees C and 5% CO2 with 95% humidity. The PDC lines were cultured according to standard operating procedures established by the NCI PDMR. Briefly, all PDCs were thawed and cultured in Matrigel-coated flasks prepared with a working solution of 1X Ham's F-12 nutrient mix, without supplementation (Invitrogen, Waltham, MA, cat. 11765054), 100 U/mL penicillin-streptomycin (Invitrogen, cat. 15140122), and 2.5% Matrigel (Corning Inc., Corning, NY, cat. 354248) for the first three passages. The 947758-054-R-J2-PDC line was cultured in 6B/Colon 1A media, which includes advanced DMEM/F-12 (Thermo Fisher Scientific, cat. 12634028), 10 mM HEPES (Thermo Fisher Scientific, cat. 15630080), 1X GlutaMAX supplement (Thermo Fisher Scientific, cat. 35050061), 0.1 mg/mL primocin (InvivoGen, cat. ant-pm-2), 10% defined fetal bovine serum, heat inactivated (HyClone Laboratories Inc., cat. SH30070.03HI), 1.25 mM N-Acetyl-L-cysteine (Sigma-Aldrich, cat. A9165), 10 mM nicotinamide (Sigma-Aldrich, cat. N0636), 1X B-27 supplement (Thermo Fisher Scientific, cat. 17504044), 1X N-2 supplement (Thermo Fisher Scientific, cat. 17502048), and 10 microM Y-27632 dihydrochloride (Tocris Bioscience, cat. 1254). The 876862-298-R-J1-PDC was cultured in 6E media, which includes all 6B/Colon 1A media components plus 50% L-WRN conditioned media (ATCC, cat. CRL-3276), 50 ng/mL recombinant human EGF recombinant protein (hEGF; Thermo Fisher Scientific, cat. PHG0311), 10 ng/mL recombinant human fibroblast growth factor 10 (hGFG-10; PeproTech, cat. 100-26), 1 ng/mL recombinant human fibroblast growth factor 2 (hFGF-2; PeproTech, cat. 100-18B), and 1 µM prostaglandin E2 (PGE2; Tocris, cat. 2296). The 227483-062-R1-J1-PDC line was cultured in Panc media, containing all 6E components except hFGF-2, with the addition of 500 nM SB-431542 (Selleckchem, cat. S1067) and 10 nM gastrin (Tocris, cat. 3006). […]
# 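Also: spheroids exposed to drugs for 7 days before readout.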
# 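For viability, T/C in this document: 100% = DMSO vehicle control wells.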
smiles,measurement,setting,value
CC(=O)O[C@H]1C(=O)[C@@]2(C)[C@H]([C@H](OC(=O)c3ccccc3)[C@]3(O)C[C@H](OC(=O)[C@H](O)[C@@H](NC(=O)c4ccccc4)c4ccccc4)C(C)=C1C3(C)C)[C@]1(OC(C)=O)CO[C@@H]1C[C@@H]2O,"viability, T/C",compound 0.0316 µM,25.9% and 26.5%
same,"viability, T/C",compound 0.1 µM,23.7% and 22.9%
same,"viability, T/C",compound 0.316 µM,23% and 20%
same,"viability, T/C",compound 1 µM,25.4% and 25.1%
same,"viability, T/C",compound 3.16 µM,29.2% and 23.1%
same,"viability, T/C",compound 10 µM,32.2% and 26.1%
same,IC50,curve of compound,< 31.6 nM
COc1ccc([C@@H](O)c2cc(-c3ncnc4cc(N5CCOCC5)ccc34)c(F)cc2Cl)nn1,"viability, T/C",compound 0.0316 µM,109% and 103%
same,"viability, T/C",compound 0.1 µM,88.9% and 106%
same,"viability, T/C",compound 0.316 µM,108% and 101%
same,"viability, T/C",compound 1 µM,98.5% and 89.7%
same,"viability, T/C",compound 3.16 µM,73.1% and 69%
same,"viability, T/C",compound 10 µM,49.9% and 28.5%
same,IC50,curve of compound,9980 nM and 5390 nM
COc1cccc2c1C(=O)c1c(O)c3c(c(O)c1C2=O)CC(O)(C(=O)CO)CC3OC1CC(N)C(O)C(C)O1 (stereo not drawn),"viability, T/C",compound 0.0316 µM,41.8% and 33.2%
same,"viability, T/C",compound 0.1 µM,16.9% and 13.5%
same,"viability, T/C",compound 0.316 µM,7.66% and 6.87%
same,"viability, T/C",compound 1 µM,7.07% and 7.16%
same,"viability, T/C",compound 3.16 µM,0.89% and 0.78%
same,"viability, T/C",compound 10 µM,4.03% and 4%
same,IC50,curve of compound,< 31.6 nM
C=CC(=O)N1CCN(c2nc(=O)n(-c3c(C)ccnc3C(C)C)c3nc(-c4c(O)cccc4F)c(F)cc23)C(C)C1 (stereo not drawn) + CN1CCN(c2cc(C(=O)Nc3cc4cc(-c5cnn(C)c5)ccc4cn3)ccn2)CC1,IC50,"curve of first compound, second compound 0.0316 µM",> 10000 nM
same,IC50,"curve of first compound, second compound 0.1 µM",1720 nM
same,IC50,"curve of first compound, second compound 0.316 µM",< 31.6 nM
same,IC50,"curve of first compound, second compound 1 µM",< 31.6 nM
same,IC50,"curve of first compound, second compound 3.16 µM",< 31.6 nM
same,IC50,"curve of first compound, second compound 10 µM",< 31.6 nM
same,"viability, T/C","second compound 0.0316 µM, first compound 0.0316 µM",80.7%
same,"viability, T/C","second compound 0.0316 µM, first compound 0.1 µM",90.6%
same,"viability, T/C","second compound 0.0316 µM, first compound 0.316 µM",91%
same,"viability, T/C","second compound 0.0316 µM, first compound 1 µM",96.3%
same,"viability, T/C","second compound 0.0316 µM, first compound 3.16 µM",99%
same,"viability, T/C","second compound 0.0316 µM, first compound 10 µM",58.4%
same,"viability, T/C","second compound 0.1 µM, first compound 0.0316 µM",57.9%
same,"viability, T/C","second compound 0.1 µM, first compound 0.1 µM",47.9%
same,"viability, T/C","second compound 0.1 µM, first compound 0.316 µM",49.9%
same,"viability, T/C","second compound 0.1 µM, first compound 1 µM",57.7%
same,"viability, T/C","second compound 0.1 µM, first compound 3.16 µM",45.7%
same,"viability, T/C","second compound 0.1 µM, first compound 10 µM",30.3%
same,"viability, T/C","second compound 0.316 µM, first compound 0.0316 µM",5.51%
same,"viability, T/C","second compound 0.316 µM, first compound 0.1 µM",4.35%
same,"viability, T/C","second compound 0.316 µM, first compound 0.316 µM",4.39%
same,"viability, T/C","second compound 0.316 µM, first compound 1 µM",4.13%
same,"viability, T/C","second compound 0.316 µM, first compound 3.16 µM",4.65%
same,"viability, T/C","second compound 0.316 µM, first compound 10 µM",2.26%
same,"viability, T/C","second compound 1 µM, first compound 0.0316 µM",0.86%
same,"viability, T/C","second compound 1 µM, first compound 0.1 µM",1.32%
same,"viability, T/C","second compound 1 µM, first compound 0.316 µM",1.28%
same,"viability, T/C","second compound 1 µM, first compound 1 µM",2.28%
same,"viability, T/C","second compound 1 µM, first compound 3.16 µM",4.17%
same,"viability, T/C","second compound 1 µM, first compound 10 µM",2.16%
same,"viability, T/C","second compound 3.16 µM, first compound 0.0316 µM",1.53%
same,"viability, T/C","second compound 3.16 µM, first compound 0.1 µM",2.07%
same,"viability, T/C","second compound 3.16 µM, first compound 0.316 µM",2.2%
same,"viability, T/C","second compound 3.16 µM, first compound 1 µM",2.58%
same,"viability, T/C","second compound 3.16 µM, first compound 3.16 µM",3.3%
same,"viability, T/C","second compound 3.16 µM, first compound 10 µM",2.74%
same,"viability, T/C","second compound 10 µM, first compound 0.0316 µM",0.76%
same,"viability, T/C","second compound 10 µM, first compound 0.1 µM",1.59%
same,"viability, T/C","second compound 10 µM, first compound 0.316 µM",1.62%
same,"viability, T/C","second compound 10 µM, first compound 1 µM",2.38%
same,"viability, T/C","second compound 10 µM, first compound 3.16 µM",2.32%
same,"viability, T/C","second compound 10 µM, first compound 10 µM",2.42%

# — PubChem BioAssay AID2060607 (Molecular Pharmacology Branch, DTP, NCI, 2025)
